One experiment deals with rNaV1.2 (Rattus norvegicus, UniProt P04775). As to the kind of experiment: Two-electrode voltage-clamp on Xenopus laevis oocytes expressing NaV1.2. The conditions noted are these: for inhibition at 100 µM: read-out: Maximum % inhibition NaV1.2, peptide at 100 μM. In general terms: Two-electrode voltage clamp holds a large cell at a set potential and records current.
The next experiment addresses hNaV1.5 (Homo sapiens, UniProt Q14524). As to the kind of experiment: Two-electrode voltage-clamp on Xenopus laevis oocytes expressing NaV1.5. The conditions noted are these: for inhibition at 100 µM: read-out: Maximum % inhibition NaV1.5.
The next experiment concerns the target rNaV1.4 (Rattus norvegicus, UniProt P15390). In words: Two-electrode voltage-clamp on Xenopus laevis oocytes expressing NaV1.4. The conditions noted are these: for inhibition at 100 µM: read-out: Maximum % inhibition NaV1.4, peptide at 100 μM.
For a further experiment, the target named is rNaV1.8 (Rattus norvegicus, UniProt Q62968). As to the kind of experiment: Two-electrode voltage-clamp on Xenopus laevis oocytes expressing NaV1.8. The settings on record: for inhibition at 100 µM: read-out: Maximum % inhibition NaV1.8.
Sequence of rNaV1.8 (Q62968 whole entry): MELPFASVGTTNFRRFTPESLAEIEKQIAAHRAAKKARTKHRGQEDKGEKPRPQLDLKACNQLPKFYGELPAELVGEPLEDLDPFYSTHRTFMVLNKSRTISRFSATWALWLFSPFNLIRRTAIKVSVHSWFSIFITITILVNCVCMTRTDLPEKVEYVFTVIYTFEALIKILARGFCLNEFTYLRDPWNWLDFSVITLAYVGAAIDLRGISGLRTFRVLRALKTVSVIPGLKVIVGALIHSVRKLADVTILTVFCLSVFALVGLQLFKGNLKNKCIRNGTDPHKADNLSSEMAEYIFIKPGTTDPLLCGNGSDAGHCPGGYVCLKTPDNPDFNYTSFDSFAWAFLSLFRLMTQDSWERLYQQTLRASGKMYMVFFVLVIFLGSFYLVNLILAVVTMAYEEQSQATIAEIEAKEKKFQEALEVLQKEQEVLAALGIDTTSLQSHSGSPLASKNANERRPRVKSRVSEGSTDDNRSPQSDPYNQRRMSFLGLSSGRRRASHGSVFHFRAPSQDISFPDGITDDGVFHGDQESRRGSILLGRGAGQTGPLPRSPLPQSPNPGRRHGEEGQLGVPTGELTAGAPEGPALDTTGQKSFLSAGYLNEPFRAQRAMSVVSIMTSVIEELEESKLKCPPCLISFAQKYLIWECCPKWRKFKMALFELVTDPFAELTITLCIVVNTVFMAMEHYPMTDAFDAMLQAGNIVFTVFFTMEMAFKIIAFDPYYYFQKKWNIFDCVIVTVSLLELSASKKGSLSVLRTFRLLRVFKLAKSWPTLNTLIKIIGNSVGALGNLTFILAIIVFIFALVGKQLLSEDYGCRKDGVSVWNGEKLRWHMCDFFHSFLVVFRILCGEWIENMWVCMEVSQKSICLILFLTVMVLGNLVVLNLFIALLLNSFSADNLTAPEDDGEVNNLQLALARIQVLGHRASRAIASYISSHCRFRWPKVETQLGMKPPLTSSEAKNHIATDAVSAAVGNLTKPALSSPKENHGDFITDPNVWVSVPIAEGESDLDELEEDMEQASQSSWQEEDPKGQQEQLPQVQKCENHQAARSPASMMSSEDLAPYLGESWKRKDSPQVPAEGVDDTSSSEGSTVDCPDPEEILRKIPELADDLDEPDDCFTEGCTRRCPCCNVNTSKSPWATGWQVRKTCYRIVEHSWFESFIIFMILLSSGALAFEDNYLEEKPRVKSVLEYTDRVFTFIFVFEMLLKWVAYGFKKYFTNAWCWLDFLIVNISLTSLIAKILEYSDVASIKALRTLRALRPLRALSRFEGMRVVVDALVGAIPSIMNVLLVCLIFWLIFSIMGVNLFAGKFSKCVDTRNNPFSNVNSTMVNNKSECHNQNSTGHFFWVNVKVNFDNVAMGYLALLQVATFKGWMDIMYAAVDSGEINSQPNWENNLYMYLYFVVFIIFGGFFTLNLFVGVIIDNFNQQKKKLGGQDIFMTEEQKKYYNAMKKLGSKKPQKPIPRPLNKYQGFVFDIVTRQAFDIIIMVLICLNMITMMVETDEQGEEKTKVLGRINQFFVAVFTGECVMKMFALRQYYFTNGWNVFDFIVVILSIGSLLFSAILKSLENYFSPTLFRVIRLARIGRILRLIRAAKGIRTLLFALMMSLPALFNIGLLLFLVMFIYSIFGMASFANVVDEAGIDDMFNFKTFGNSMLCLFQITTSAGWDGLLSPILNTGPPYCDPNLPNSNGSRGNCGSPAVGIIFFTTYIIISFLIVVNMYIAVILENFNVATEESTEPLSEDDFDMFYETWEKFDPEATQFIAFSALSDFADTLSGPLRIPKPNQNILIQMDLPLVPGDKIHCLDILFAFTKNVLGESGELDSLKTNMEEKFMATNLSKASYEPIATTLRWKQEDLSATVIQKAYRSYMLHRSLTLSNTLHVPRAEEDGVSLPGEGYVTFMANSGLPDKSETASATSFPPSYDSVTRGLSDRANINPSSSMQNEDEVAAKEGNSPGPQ
The target in another experiment is mNaV1.6 (Mus musculus, UniProt Q9WTU3). In words: Two-electrode voltage-clamp on Xenopus laevis oocytes expressing NaV1.6. The conditions noted are these: for inhibition at 100 µM: read-out: Maximum % inhibition NaV1.6, peptide at 100 μM.

The text below walks through data of paper PMC9116130 (Biochemical pharmacology, 2020).

Where a SMILES comes first, the peptide text is derived from it. Bridges are numbered along the chain shown (N, C = ends).

As usually defined, the IC50 is the point on the concentration scale where inhibition reaches its midpoint. Read a low IC50 as greater potency in that assay. In general, inhibition refers to the change of the read-out against control, counted positive when it falls.

Sequence of rNaV1.4 (P15390 whole entry): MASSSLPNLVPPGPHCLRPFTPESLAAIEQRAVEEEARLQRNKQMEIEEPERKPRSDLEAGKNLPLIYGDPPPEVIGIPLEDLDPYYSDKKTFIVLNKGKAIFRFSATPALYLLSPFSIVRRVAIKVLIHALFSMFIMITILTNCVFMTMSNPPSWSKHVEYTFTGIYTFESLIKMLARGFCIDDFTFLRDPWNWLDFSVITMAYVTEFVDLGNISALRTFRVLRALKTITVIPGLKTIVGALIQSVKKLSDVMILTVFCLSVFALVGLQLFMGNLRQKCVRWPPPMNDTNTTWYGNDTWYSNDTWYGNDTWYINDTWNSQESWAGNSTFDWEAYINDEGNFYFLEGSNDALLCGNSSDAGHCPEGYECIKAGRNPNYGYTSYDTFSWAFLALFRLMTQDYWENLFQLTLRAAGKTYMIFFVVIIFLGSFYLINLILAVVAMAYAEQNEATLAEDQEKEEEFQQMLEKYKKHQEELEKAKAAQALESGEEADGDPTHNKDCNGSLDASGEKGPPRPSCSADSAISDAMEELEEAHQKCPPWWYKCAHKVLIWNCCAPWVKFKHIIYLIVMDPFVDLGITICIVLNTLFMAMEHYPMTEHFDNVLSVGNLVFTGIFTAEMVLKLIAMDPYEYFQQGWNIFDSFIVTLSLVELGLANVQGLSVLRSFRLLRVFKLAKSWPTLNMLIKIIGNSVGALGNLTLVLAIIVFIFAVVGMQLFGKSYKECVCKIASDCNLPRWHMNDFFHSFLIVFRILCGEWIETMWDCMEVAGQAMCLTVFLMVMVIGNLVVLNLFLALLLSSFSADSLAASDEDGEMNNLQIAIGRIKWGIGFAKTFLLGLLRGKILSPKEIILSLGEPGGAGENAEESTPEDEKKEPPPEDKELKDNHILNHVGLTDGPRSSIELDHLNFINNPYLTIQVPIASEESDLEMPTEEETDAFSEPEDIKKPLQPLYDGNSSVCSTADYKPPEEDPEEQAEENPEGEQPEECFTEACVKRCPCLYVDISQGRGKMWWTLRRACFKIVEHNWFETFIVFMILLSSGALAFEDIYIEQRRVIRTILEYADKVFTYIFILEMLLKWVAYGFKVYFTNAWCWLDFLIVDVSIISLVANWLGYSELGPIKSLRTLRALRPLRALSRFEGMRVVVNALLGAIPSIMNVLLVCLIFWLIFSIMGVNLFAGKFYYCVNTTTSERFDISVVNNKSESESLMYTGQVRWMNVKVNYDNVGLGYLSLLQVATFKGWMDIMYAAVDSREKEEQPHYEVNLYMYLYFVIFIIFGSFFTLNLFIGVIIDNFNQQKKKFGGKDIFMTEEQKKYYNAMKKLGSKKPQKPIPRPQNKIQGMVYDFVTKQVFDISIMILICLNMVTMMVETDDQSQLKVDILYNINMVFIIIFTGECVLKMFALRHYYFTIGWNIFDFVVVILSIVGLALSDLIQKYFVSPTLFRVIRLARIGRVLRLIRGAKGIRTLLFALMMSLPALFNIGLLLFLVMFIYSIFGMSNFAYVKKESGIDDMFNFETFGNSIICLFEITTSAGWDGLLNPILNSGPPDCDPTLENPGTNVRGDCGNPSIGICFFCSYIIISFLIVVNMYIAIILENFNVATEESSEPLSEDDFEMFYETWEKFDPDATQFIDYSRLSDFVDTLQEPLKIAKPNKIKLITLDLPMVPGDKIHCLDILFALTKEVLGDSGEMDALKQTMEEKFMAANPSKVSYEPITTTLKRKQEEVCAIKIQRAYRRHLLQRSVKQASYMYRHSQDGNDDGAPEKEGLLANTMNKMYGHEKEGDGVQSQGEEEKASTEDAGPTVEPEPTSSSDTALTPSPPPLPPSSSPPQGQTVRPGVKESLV
Sequence of rNaV1.4 (Q00954 19-218, further chain): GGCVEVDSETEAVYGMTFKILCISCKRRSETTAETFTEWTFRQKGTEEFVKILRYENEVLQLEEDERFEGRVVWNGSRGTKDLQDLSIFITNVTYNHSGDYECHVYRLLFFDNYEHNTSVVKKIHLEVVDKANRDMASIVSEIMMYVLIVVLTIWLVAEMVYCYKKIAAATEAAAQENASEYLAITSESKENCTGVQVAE

Take `C[C@@H]1NC(=O)[C@H](CC(N)=O)NC(=O)[C@H](Cc2c[nH]c3ccccc23)NC(=O)[C@H](CCCNC(=N)N)NC(=O)[C@H](C)NC(=O)[C@H](Cc2c[nH]c3ccccc23)NC(=O)[C@H](CCCNC(=N)N)NC(=O)[C@H](CCCNC(=N)N)NC(=O)[C@@H](N)CSSC[C@@H](C(N)=O)NC1=O` [PnCS1[R9A], CRRWARWNAC ^*] (H-CRRWARWNAC-NH2; disulfide 1-10): the IC50 at rNaV1.2 was 6.7 ± 1.2 µM; against hNaV1.5, 9.2 ± 4.6 µM; against rNaV1.4, 1.1 ± 0.3 µM; on rNaV1.8, more than 100 µM; against mNaV1.6, 0.9 ± 0.4 µM. Also, the inhibition at 100 µM is 80% at rNaV1.2; 72% on hNaV1.5; 86% at rNaV1.4; 0% on rNaV1.8; 79% at mNaV1.6.
In the case of `C[C@@H]1NC(=O)[C@H](Cc2c[nH]c3ccccc23)NC(=O)[C@H](CCCNC(=N)N)NC(=O)[C@H](CCCNC(=N)N)NC(=O)[C@@H](N)CSSC[C@@H](C(=O)O)NC(=O)[C@H](CCCNC(=N)N)NC(=O)[C@H](CC(N)=O)NC(=O)[C@H](Cc2c[nH]c3ccccc23)NC(=O)[C@H](CCCNC(=N)N)NC1=O` [PnCS1DeAm, CRRWARWNRC] (H-CRRWARWNRC-OH; disulfide 1-10), the IC50 at rNaV1.2, on hNaV1.5, at rNaV1.4, against rNaV1.8 and against mNaV1.6 was more than 100 µM throughout. The inhibition at 100 µM at rNaV1.2 stood at 34%; on hNaV1.5, 10%; at rNaV1.4, 43%; at rNaV1.8, 0%; at mNaV1.6 it was 24%.
Regarding `C[C@@H]1NC(=O)[C@H](Cc2c[nH]c3ccccc23)NC(=O)[C@H](CCCNC(=N)N)NC(=O)[C@H](CCCCN)NC(=O)[C@@H](N)CSSC[C@@H](C(N)=O)NC(=O)[C@H](CCCNC(=N)N)NC(=O)[C@H](CC(N)=O)NC(=O)[C@H](Cc2c[nH]c3ccccc23)NC(=O)[C@H](CCCNC(=N)N)NC1=O` [PnCS1[R2K], CKRWARWNRC ^*] (H-CKRWARWNRC-NH2; disulfide 1-10), the IC50 against rNaV1.2 was 1.1 ± 0.5 µM; against hNaV1.5, 2.5 ± 0.5 µM; on rNaV1.4, 0.8 ± 0.3 µM; at rNaV1.8 it was more than 100 µM; at mNaV1.6 it was 0.6 ± 0.2 µM. The inhibition at 100 µM on rNaV1.2 is 92%; on hNaV1.5 it was 82%; at rNaV1.4, 93%; at rNaV1.8, 0%; at mNaV1.6, 85%.
As to `C[C@@H]1NC(=O)[C@H](Cc2c[nH]c3ccccc23)NC(=O)[C@H](CCC(=O)O)NC(=O)[C@H](CCCNC(=N)N)NC(=O)[C@@H](N)CSSC[C@@H](C(N)=O)NC(=O)[C@H](CCCNC(=N)N)NC(=O)[C@H](CC(N)=O)NC(=O)[C@H](Cc2c[nH]c3ccccc23)NC(=O)[C@H](CCCNC(=N)N)NC1=O` [PnCS1[R3E], CREWARWNRC ^*] (H-CREWARWNRC-NH2; disulfide 1-10), the concentration for half-maximal inhibition (IC50) on rNaV1.2, against hNaV1.5, against rNaV1.4, at rNaV1.8 and against mNaV1.6 was more than 100 µM throughout. Moreover, the inhibition at 100 µM turned out to be 52% at rNaV1.2; 21% on hNaV1.5; 36% at rNaV1.4; 0% at rNaV1.8; 24% on mNaV1.6.
`CC(=O)N[C@H]1CSSC[C@@H](C(=O)O)NC(=O)[C@H](CCCNC(=N)N)NC(=O)[C@H](CC(N)=O)NC(=O)[C@H](Cc2c[nH]c3ccccc23)NC(=O)[C@H](CCCNC(=N)N)NC(=O)[C@H](C)NC(=O)[C@H](Cc2c[nH]c3ccccc23)NC(=O)[C@H](CCCNC(=N)N)NC(=O)[C@H](CCCNC(=N)N)NC1=O` [PnCS1Ac, Ac-CRRWARWNRC] (Ac-CRRWARWNRC-OH; disulfide 1-10): the inhibition at 100 µM at rNaV1.2, on hNaV1.5, at rNaV1.4, at rNaV1.8 and at mNaV1.6 was 0% throughout.
With `C[C@@H]1NC(=O)[C@H](Cc2c[nH]c3ccccc23)NC(=O)[C@H](CCCNC(=N)N)NC(=O)[C@H](CCCNC(=N)N)NC(=O)[C@@H](N)CSSC[C@@H](C(N)=O)NC(=O)[C@H](CCCCN)NC(=O)[C@H](CC(N)=O)NC(=O)[C@H](Cc2c[nH]c3ccccc23)NC(=O)[C@H](CCCNC(=N)N)NC1=O` [PnCS1[R9K], CRRWARWNKC ^*] (H-CRRWARWNKC-NH2; disulfide 1-10), the IC50 against rNaV1.2 was 10.2 ± 4.3 µM; against hNaV1.5, 9.2 ± 0.6 µM; on rNaV1.4, 6.1 ± 2.1 µM; at rNaV1.8 it was more than 100 µM; against mNaV1.6, 6.7 ± 0.8 µM. The inhibition at 100 µM is 62% at rNaV1.2; 67% on hNaV1.5; 66% at rNaV1.4; 0% on rNaV1.8; 72% at mNaV1.6.
Regarding `C[C@@H]1NC(=O)[C@H](Cc2c[nH]c3ccccc23)NC(=O)[C@H](CCCNC(=N)N)NC(=O)[C@H](CCC(=O)O)NC(=O)[C@@H](N)CSSC[C@@H](C(N)=O)NC(=O)[C@H](CCCNC(=N)N)NC(=O)[C@H](CC(N)=O)NC(=O)[C@H](Cc2c[nH]c3ccccc23)NC(=O)[C@H](CCCNC(=N)N)NC1=O` [PnCS1[R2E], CERWARWNRC ^*] (H-CERWARWNRC-NH2; disulfide 1-10), the IC50 at rNaV1.2, at hNaV1.5, at rNaV1.4, against rNaV1.8 and against mNaV1.6 was more than 100 µM in each case. For the same molecule, the inhibition at 100 µM at rNaV1.2 was 41%; on hNaV1.5, 27%; at rNaV1.4, 11%; on rNaV1.8 it was 0%; on mNaV1.6, 5%.
As to `N=C(N)NCCC[C@@H]1NC(=O)[C@H](CC(N)=O)NC(=O)[C@H](Cc2c[nH]c3ccccc23)NC(=O)[C@H](CCCNC(=N)N)NC(=O)[C@H](CCCCN)NC(=O)[C@H](Cc2c[nH]c3ccccc23)NC(=O)[C@H](CCCNC(=N)N)NC(=O)[C@H](CCCNC(=N)N)NC(=O)[C@@H](N)CSSC[C@@H](C(N)=O)NC1=O` [PnCS1[A5K], CRRWKRWNRC ^*] (H-CRRWKRWNRC-NH2; disulfide 1-10), the 50% inhibitory concentration (IC50) on rNaV1.2 was 1.2 ± 0.4 µM; against hNaV1.5 it was 2.1 ± 0.2 µM; on rNaV1.4 it was 1.9 ± 0.8 µM; against rNaV1.8, more than 100 µM; on mNaV1.6, 0.7 ± 0.3 µM. Besides, the inhibition at 100 µM on rNaV1.2 is 84%; at hNaV1.5 it was 92%; on rNaV1.4 it was 91%; at rNaV1.8 it was 0%; at mNaV1.6, 93%.
As to `C[C@@H]1NC(=O)[C@H](CCCNC(=N)N)NC(=O)[C@H](C)NC(=O)[C@H](Cc2c[nH]c3ccccc23)NC(=O)[C@H](CCCNC(=N)N)NC(=O)[C@H](CCCNC(=N)N)NC(=O)[C@@H](N)CSSC[C@@H](C(N)=O)NC(=O)[C@H](CCCNC(=N)N)NC(=O)[C@H](CC(N)=O)NC1=O` [PnCS1[W7A], CRRWARANRC ^*] (H-CRRWARANRC-NH2; disulfide 1-10), the IC50 against rNaV1.2 is 0.8 ± 0.3 µM; at hNaV1.5, 6.8 ± 1.3 µM; against rNaV1.4, 1.1 ± 0.4 µM; against rNaV1.8, more than 100 µM; against mNaV1.6 it was 11.4 ± 3.6 µM. The inhibition at 100 µM at rNaV1.2 was 92%; at hNaV1.5 it was 78%; at rNaV1.4, more than 95%; on rNaV1.8 it was 0%; at mNaV1.6, 57%. For the same molecule, the “Maximum % inhibition NaV1.4” value at rNaV1.4 (peptide at 100 μM, 100 µM) amounted to 96%.
